Source: US8293769B2, “CSF-1R inhibitors, compositions, and methods of use” (Novartis AG, priority 2008, dated 2012)

Legend:
[1] = target: T1, cytoplasmic domain of the human CSF-1R (Homo sapiens, UniProt P07333); test: In vitro kinase assay for CSF-1R (AlphaScreen); assay type: biochemical; conditions: tested at about 1 μM; read-out: CSF1RK 1 percent inhibition
T1 construct: Recombinant protein corresponding to the cytoplasmic domain of the human CSF-1R; purchased Invitrogen Corporation, Carlsbad, Calif; PV3249
T1 sequence (P07333 539-972 limits assumed): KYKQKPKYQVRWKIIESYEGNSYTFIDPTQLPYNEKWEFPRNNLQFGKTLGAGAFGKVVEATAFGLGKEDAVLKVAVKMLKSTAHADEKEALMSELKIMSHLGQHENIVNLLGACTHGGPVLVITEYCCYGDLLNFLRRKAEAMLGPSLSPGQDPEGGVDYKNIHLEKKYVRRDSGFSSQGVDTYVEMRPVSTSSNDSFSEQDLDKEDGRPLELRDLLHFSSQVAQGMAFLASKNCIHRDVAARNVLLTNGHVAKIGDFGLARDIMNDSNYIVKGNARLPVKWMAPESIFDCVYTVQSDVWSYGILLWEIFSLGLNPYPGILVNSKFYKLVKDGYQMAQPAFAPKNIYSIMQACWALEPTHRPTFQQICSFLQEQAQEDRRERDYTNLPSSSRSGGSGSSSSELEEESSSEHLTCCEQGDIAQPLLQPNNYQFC
Protocol: The kinase activity of various protein tyrosine kinases can be measured by providing ATP and a suitable peptide or protein tyrosine-containing substrate, and assaying the transfer of phosphate moiety to the tyrosine residue. Recombinant protein corresponding to the cytoplasmic domain of the human CSF-1R was purchased from Invitrogen Corporation, Carlsbad, Calif. U.S.A. (#PV3249). For each assay, test compounds were serially diluted, starting at 25 μM with 3 fold dilutions, in DMSO in 384 well plates then mixed with an appropriate kinase reaction buffer consisting of 50 mM Hepes, 5 mM MgCl2, 10 mM MnCl2, 0.1% BSA, pH 7.5, 1.0 mM dithiothreitol, 0.01% Tween 80 plus 1 μM ATP. Kinase protein and an appropriate biotinylated peptide substrate at 50 nM were added to give a final volume of 20 μL, reactions were incubated for 2 hours at room temperature and stopped by the addition of 10 μL of 45 mM EDTA, 50 mM Hepes pH 7.5. Added to the stopped reaction mix was 30 μL of PT66 Alphascreen beads (Perkin Elmer, Boston, Mass., U.S.A.). The reaction was incubated overnight and read on the Envision (Perkin Elmer). Phosphorylated peptide product was measured with the AlphaScreen system (Perkin Elmer) using acceptor beads coated with anti-phosphotyrosine antibody PT66 and donor beads coated with streptavidin that emit a fluorescent signal at the 520-620 nm emission wave length if in close proximity. The concentration of each compound for 50% inhibition (IC50) was calculated by non-linear regression using XL Fit data analysis software.
CSF-1R kinase was assayed in 50 mM Hepes pH 7.0, 5 mM MgCl2, 10 mM MnCl2, 1 mM DTT, 1 mg/mL BSA, 1.0 μM ATP, and 0.05 μM biotin-GGGGRPRAATF-NH2 (SEQ ID NO:1) peptide substrate. CSF-1R kinase was added at final concentration of 4 nM.

cKIT = target: T2, cKIT (Homo sapiens, UniProt P10721); test: cKIT kinase in vitro biochemical assay (alphascreen); conditions: tested at about 1 μM; read-out: CKIT percent inhibition
T2 construct: The kinase domain of cKIT was assayed in 50 mM Hepes; purchased Upstate 14-559
T2 sequence (P10721 589-937 limits assumed): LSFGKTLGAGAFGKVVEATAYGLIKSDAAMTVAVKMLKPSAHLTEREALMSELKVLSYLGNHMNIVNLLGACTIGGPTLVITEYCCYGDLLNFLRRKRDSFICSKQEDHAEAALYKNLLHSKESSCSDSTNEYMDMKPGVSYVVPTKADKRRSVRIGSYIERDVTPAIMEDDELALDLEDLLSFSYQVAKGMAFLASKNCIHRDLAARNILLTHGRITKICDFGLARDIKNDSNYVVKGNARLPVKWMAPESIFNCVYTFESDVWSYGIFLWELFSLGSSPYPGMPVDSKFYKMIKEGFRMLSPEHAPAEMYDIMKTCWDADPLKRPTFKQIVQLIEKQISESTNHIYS
Protocol: (§1) The IC50 values for the inhibition of RTKs were determined in the alphascreen format measuring the inhibition by compound of phosphate transfer to a substrate by the respective enzyme. Briefly, the respective RTK domain purchased as human recombinant protein (cKIT Upstate #14-559, PDGFRb Invitrogen #P3082) were incubated with serial dilutions of compound in the presence of substrate and ATP concentrations within 3 times the Km of the enzyme.
(§2) The kinase domain of cKIT was assayed in 50 mM Hepes, pH=7.5, 5 mM MgCl2, 10 mM MnCl2, 1 mM DTT, 0.1% BSA with 0.06 uM biotinylated peptide substrate (GGLFDDPSYVNVQNL-NH2) and 15 uM ATP (ATP KM apparent=15 uM). The kinase domain of PDGFRβ was assayed in 50 mM Hepes, pH=7.5, 20 mM MgCl2, 1 mM DTT, 0.1% BSA with 0.1 uM biotinylated peptide substrate (GGLFDDPSYVNVQNL-NH2) and 10 uM ATP (ATP KM apparent=25 uM). Reactions were incubated at room temperature for 3 to 4 hr and stopped with buffer (20 mM EDTA, 0.01% Tween-20 for both PDGFRb and cKIT). Alphascreen PY20 beads were added to the stopped cKIT reactions and PY20 Ab/Protein A Alphascreen beads were added to the PDGFRβ stopped reactions. Both reactions were incubated overnight and read on the Alphascreen reader. The concentration of compound for 50% inhibition (IC50) was calculated employing non-linear regression using XL-Fit data analysis software. As a control compound, staurosporine is run in every assay and a Z′>0.5 is required to validate results.

PDGFRb = target: T3, PDGFRb (Homo sapiens, UniProt P09619); test: PDGFRb kinase in vitro biochemical assay (alphascreen); conditions: tested at about 1 μM; read-out: PDGF RK BETA percent inhibition
T3 construct: The kinase domain of PDGFRβ was assayed in 50 mM Hepes; purchased Invitrogen P3082
T3 sequence (P09619 600-962 limits assumed): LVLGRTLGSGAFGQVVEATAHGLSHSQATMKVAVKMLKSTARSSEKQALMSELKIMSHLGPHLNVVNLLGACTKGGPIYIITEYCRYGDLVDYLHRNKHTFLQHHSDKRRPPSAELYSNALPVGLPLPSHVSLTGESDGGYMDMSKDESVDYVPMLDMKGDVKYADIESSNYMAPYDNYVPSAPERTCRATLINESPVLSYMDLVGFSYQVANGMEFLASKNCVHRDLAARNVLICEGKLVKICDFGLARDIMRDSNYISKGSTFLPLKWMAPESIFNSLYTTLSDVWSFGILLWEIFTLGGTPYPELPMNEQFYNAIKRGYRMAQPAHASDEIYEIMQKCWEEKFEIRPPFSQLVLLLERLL
Protocol: as §1, §2

| Structure (SMILES) | inhibition at 1 µM [1] [%] | inhibition at 1 µM (cKIT) [%] | inhibition at 1 µM (PDGFRb) [%] |
| --- | --- | --- | --- |
| Clc1cc(Oc2ccc3nc(NCC4CCCCC4)sc3c2)ncn1 [Compound 2, 6-(6-chloropyrimidin-4-yloxy)-N-(cyclohexylmethyl)benzo[d]thiazol-2-amine] | 78 | 11 | 6 |
| Nc1cc(Oc2ccc3nc(NCC4CCCCC4)sc3c2)nc(N)n1 [Compound 3, 6-(2-(cyclohexylmethylamino)benzo [d]thiazol-6-yloxy) pyrimidine-2,4-diamine] | 19 | 23 | 0 |
| Clc1nccc(Oc2ccc3nc(NCC4CCCCC4)sc3c2)n1 [Compound 4, 6-(2-chloropyrimidin-4-yloxy)-N-(cyclohexylmethyl) benzo[d]thiazol-2-amine] | 73 | 23 | 0 |
| O[C@@H]1CCCC[C@H]1Nc1nc2ccc(Oc3cc(Cl)ncn3)cc2s1 [Compound 5, (1R,2R)-2-(6-(6-chloropyrimidin-4-yloxy)benzo[d]thiazol-2-ylamino) cyclohexanol] | 41 | 25 | 0 |
| O[C@@H]1CCCC[C@H]1Nc1nc2ccc(Oc3ccnc(Cl)n3)cc2s1 [Compound 6, (1R,2R)-2-(6-(2-chloropyrimidin-4-yloxy)benzo[d]thiazol-2-ylamino) cyclohexanol] | 18 | 19 | 0 |
| c1nc(Oc2ccc3nc(NCC4CCCCC4)sc3c2)cc(N2CCOCC2)n1 [Compound 11, N-(cyclohexylmethyl)-6-(6-morpholinopyrimidin-4-yloxy)benzo[d]thiazol-2-amine] | 68 | 19 | 13 |
| CC(=O)NCCNc1cc(Oc2ccc3nc(NCC4CCCCC4)sc3c2)ncn1 [Compound 12, N-(2-(6-(2-(cyclohexylmethylamino)benzo[d]thiazol-6-yloxy)pyrimidin-4-ylamino)ethyl) acetamide] | 80 | 13 | 37 |
| CC(=O)NCCNc1cc(Oc2ccc3nc(NCC4CCCCC4)sc3c2)nc(N)n1 [Compound 14, N-(2-(2-amino-6-(2-(cyclohexyl-methylamino)benzo[d]thiazol-6-yloxy)pyrimidin-4-ylamino)ethyl)acetamide] | 26 | 23 | 0 |
| c1cc(Oc2ccc3nc(NCC4CCCCC4)sc3c2)nc(N2CCOCC2)n1 [Compound 15, N-(cyclohexylmethyl)-6-(2-morpholinopyrimidin-4-yloxy)benzo[d]thiazol-2-amine] | 94 | 26 | 16 |
| CC(=O)NCCNc1nccc(Oc2ccc3nc(NCC4CCCCC4)sc3c2)n1 [Compound 16, N-(2-(4-(2-(cyclohexylmethylamino)benzo[d]thiazol-6-yloxy)pyrimidin-2-ylamino)ethyl) acetamide] | 89 | 22 | 35 |
| C[C@H](Nc1nc2ccc(Oc3cc(Cl)ncn3)cc2s1)C1CCCCC1 [Compound 35, (S)-6-(6-chloropyrimidin-4-yloxy)-N-(1-cyclohexylethyl) benzo[d]thiazol-2-amine] | 79 | 20 | 2 |

Further lines, results first:

| inhibition at 1 µM [1] [%] | inhibition at 1 µM (cKIT) [%] | inhibition at 1 µM (PDGFRb) [%] | Structure (SMILES) |
| --- | --- | --- | --- |
| 59 | 19 | 0 | C[C@H](Nc1nc2ccc(Oc3ccnc(Cl)n3)cc2s1)C1CCCCC1 [Compound 36, (S)-6-(2-chloropyrimidin-4-yloxy)-N-(1-cyclohexylethyl)benzo[d]thiazol-2-amine] |
| 100 | 99 | 83 | c1nc(Oc2ccc3nc(NCC4CCCCC4)sc3c2)c2sccc2n1 [Compound 38, N-(cyclohexylmethyl)-6-(thieno[3,2-d]pyrimidin-4-yloxy) benzo[d]thiazol-2-amine] |
| 27 | 33 | 0 | C[C@H](Nc1nc2ccc(Oc3cc(-n4cncn4)ccn3)cc2s1)C1CCCCC1 [Compound 39, (S)-6-(4-(1H-1,2,4-triazol-1-yl)pyridin-2-yloxy)-N-(1-cyclohexylethyl) benzo[d]thiazol-2-amine] |
| 68 | 32 | 17 | C[C@H](Nc1nc2ccc(Oc3cncc(-n4cncn4)n3)cc2s1)C1CCCCC1 [Compound 40, (S)-6-(6-(1H-1,2,4-triazol-1-yl)pyrazin-2-yloxy)-N-(1-cyclobexylethyl)benzo[d]thiazol-2-amine] |
| 51 | 9 | 10 | O[C@@H]1CCCC[C@H]1Nc1nc2ccc(Oc3cncc(-n4cncn4)n3)cc2s1 [Compound 42, (1R,2R)-2-(6-(6-(1H-1,2,4-triazol-1-yl)pyrazin-2-yloxy)benzo[d]thiazol-2-ylamino)cyclohexanol] |
| 57 | 15 | 14 | O[C@@H]1CCCC[C@H]1Nc1nc2ccc(Oc3cc(-n4cncn4)ncn3)cc2s1 [Compound 43, (1R,2R)-2-(6-(6-(1H-1,2,4-triazol-1-yl)pyrimidin-4-yloxy)benzo[d]thiazol-2-ylamino)cyclohexanol] |
| 95 | 32 | 6 | CNC(=O)c1ccncc1Oc1ccc2nc(NCC3CCCCC3)sc2c1 [Compound 49, 3-(2-(cyclohexylmethylamino)benzo[d]thiazol-6-yloxy)-N-methylisonicotinamide] |
| 98 | 32 | 11 | CNC(=O)c1cncc(Oc2ccc3nc(NCC4CCCCC4)sc3c2)n1 [Compound 50, 6-(2-(cyclohexylmethylamino)benzo [d]thiazol-6-yloxy)-N-methylpyrazine-2-carboxamide] |
| 78 | 33 | 12 | CNC(=O)c1cncc(Oc2ccc3nc(N[C@@H]4CCCC[C@H]4O)sc3c2)n1 [Compound 52, 6-(2-((1R,2R)-2-hydroxycyclohexylamino)benzo[d]thiazol-6-yloxy)-N-methylpyrazine-2-carboxamide] |
| 87 | 56 | 13 | CNC(=O)c1ccc(Oc2ccc3nc(N[C@@H]4CCCC[C@H]4O)sc3c2)cn1 [Compound 54, 5-(2-((1R,2R)-2-hydroxycyclohexylamino)benzo[d]thiazol-6-yloxy)-N-methylpicolinamide] |
